Experimental data as given in the kinase profiling compilation of Christmann-Franck et al. (2016).

Experiments:
Assay in all cases: radiometric filter-binding kinase assay
PRKAA1 or PRKAA2 (rat) = conditions: accession and sequence are those of the human protein
EPHB3 (human) = EPHB3 (human) (UniProt P54753)
MINK1 (human) = MINK1 (human) (UniProt Q8N4C8)
RPS6KA1 KD1 KD2 (human) = RPS6KA1 KD1 KD2 (human) (UniProt Q15418)
MYLK (human) = MYLK (human) (UniProt Q15746)
MAPK13 (human) = MAPK13 (human) (UniProt O15264)
CSK (human) = CSK (human) (UniProt P41240)
PRKACA (human) = PRKACA (human) (UniProt P17612)
AURKB (human) = AURKB (human) (UniProt Q96GD4)
NTRK1 (human) = NTRK1 (human) (UniProt P04629)
GSK3B (human) = GSK3B (human) (UniProt P49841)
DAPK1 (human) = DAPK1 (human) (UniProt P53355)
IKBKB (human) = IKBKB (human) (UniProt O14920)
MARK4 (human) = MARK4 (human) (UniProt Q96L34)
MELK (human) = MELK (human) (UniProt Q14680)
CHEK2 (human) = CHEK2 (human) (UniProt O96017)
MAPK1 (human) = MAPK1 (human) (UniProt P28482)
EEF2K (human) = EEF2K (human) (UniProt O00418)
ERBB4 (human) = ERBB4 (human) (UniProt Q15303)
MKNK2 (human) = MKNK2 (human) (UniProt Q9HBH9)
LCK (mouse) = conditions: accession and sequence are those of the human protein
MKNK1 (human) = MKNK1 (human) (UniProt Q9BUB5)
MAP3K9 (human) = MAP3K9 (human) (UniProt P80192)
TTK (human) = TTK (human) (UniProt P33981)
MAP2K2 (human) = MAP2K2 (human) (UniProt P36507)
CDK2 CCNA2 (human) = CDK2 CCNA2 (human) (UniProt P20248+P24941)
[1] = biological target: STK11 CAB39 STRADA (human) (UniProt Q9Y376+Q7RTN6+Q15831)
PHKG1 (human) = PHKG1 (human) (UniProt Q16816)
MAPKAPK3 (human) = MAPKAPK3 (human) (UniProt Q16644)
INSRR (human) = INSRR (human) (UniProt P14616)
ROCK2 (rat) = conditions: accession and sequence are those of the human protein
CSNK2A1 (human) = CSNK2A1 (human) (UniProt P68400)
FGFR1 (human) = FGFR1 (human) (UniProt P11362)
PRKCZ (human) = PRKCZ (human) (UniProt Q05513)

MAP3K9 (human), sequence (P80192 whole entry, looked up): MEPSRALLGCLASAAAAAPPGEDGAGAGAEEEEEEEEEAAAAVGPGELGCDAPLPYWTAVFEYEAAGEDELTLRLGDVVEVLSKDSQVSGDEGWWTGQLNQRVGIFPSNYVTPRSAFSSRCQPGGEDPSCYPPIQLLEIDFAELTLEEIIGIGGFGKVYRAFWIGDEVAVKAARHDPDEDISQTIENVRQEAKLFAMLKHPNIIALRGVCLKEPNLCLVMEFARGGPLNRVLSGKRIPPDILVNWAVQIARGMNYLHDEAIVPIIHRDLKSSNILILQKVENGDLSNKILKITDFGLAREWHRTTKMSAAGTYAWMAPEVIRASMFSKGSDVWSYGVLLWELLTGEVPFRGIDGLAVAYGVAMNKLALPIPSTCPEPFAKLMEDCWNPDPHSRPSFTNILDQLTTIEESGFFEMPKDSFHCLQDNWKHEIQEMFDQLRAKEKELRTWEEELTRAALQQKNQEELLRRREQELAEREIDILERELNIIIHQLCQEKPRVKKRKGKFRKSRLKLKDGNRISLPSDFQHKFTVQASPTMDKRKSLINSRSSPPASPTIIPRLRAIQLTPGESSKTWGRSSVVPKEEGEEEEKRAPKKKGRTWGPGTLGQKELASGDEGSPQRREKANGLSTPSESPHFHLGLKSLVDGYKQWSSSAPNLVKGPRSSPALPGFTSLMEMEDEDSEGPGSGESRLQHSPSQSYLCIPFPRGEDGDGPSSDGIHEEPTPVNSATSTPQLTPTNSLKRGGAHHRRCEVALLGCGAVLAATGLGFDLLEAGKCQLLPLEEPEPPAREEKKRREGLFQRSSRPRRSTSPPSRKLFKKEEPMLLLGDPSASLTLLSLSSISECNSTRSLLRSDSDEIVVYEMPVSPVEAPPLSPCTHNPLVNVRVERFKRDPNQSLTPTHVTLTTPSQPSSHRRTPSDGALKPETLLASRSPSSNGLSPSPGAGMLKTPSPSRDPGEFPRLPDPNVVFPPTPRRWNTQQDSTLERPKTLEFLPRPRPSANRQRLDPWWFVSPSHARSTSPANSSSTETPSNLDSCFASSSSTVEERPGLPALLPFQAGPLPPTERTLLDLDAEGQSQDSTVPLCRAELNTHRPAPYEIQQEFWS
NTRK1 (human), sequence (P04629 whole entry, looked up): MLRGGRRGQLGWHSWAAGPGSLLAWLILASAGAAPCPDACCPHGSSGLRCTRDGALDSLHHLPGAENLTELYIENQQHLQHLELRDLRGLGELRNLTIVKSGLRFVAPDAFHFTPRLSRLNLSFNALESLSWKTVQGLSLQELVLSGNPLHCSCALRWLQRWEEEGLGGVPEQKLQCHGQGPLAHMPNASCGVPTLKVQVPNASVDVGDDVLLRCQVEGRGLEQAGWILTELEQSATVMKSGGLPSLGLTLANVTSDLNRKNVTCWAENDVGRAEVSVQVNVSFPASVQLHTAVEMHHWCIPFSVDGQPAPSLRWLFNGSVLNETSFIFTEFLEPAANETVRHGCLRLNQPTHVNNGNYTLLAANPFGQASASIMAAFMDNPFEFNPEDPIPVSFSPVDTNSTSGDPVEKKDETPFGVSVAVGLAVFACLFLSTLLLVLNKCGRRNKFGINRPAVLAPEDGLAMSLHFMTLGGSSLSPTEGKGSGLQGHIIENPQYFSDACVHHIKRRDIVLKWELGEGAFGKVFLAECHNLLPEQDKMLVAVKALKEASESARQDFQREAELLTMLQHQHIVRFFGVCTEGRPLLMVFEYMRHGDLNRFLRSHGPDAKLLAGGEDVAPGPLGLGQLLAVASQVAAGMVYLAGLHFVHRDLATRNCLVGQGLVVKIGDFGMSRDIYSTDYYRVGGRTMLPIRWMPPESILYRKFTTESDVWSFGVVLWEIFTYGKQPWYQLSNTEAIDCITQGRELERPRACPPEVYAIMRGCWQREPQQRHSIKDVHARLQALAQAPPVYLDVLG
MAPK1 (human), sequence (P28482 whole entry, looked up): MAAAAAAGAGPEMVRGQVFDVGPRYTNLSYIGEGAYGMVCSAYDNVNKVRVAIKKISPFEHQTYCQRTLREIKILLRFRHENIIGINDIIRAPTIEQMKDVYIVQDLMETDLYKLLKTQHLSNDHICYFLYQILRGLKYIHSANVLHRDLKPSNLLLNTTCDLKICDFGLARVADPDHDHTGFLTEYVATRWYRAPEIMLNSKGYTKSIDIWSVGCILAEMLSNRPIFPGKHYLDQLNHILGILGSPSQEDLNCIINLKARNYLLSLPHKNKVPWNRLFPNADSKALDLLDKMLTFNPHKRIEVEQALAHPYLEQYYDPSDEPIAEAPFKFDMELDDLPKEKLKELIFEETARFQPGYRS
MYLK (human), sequence (Q15746 whole entry, looked up): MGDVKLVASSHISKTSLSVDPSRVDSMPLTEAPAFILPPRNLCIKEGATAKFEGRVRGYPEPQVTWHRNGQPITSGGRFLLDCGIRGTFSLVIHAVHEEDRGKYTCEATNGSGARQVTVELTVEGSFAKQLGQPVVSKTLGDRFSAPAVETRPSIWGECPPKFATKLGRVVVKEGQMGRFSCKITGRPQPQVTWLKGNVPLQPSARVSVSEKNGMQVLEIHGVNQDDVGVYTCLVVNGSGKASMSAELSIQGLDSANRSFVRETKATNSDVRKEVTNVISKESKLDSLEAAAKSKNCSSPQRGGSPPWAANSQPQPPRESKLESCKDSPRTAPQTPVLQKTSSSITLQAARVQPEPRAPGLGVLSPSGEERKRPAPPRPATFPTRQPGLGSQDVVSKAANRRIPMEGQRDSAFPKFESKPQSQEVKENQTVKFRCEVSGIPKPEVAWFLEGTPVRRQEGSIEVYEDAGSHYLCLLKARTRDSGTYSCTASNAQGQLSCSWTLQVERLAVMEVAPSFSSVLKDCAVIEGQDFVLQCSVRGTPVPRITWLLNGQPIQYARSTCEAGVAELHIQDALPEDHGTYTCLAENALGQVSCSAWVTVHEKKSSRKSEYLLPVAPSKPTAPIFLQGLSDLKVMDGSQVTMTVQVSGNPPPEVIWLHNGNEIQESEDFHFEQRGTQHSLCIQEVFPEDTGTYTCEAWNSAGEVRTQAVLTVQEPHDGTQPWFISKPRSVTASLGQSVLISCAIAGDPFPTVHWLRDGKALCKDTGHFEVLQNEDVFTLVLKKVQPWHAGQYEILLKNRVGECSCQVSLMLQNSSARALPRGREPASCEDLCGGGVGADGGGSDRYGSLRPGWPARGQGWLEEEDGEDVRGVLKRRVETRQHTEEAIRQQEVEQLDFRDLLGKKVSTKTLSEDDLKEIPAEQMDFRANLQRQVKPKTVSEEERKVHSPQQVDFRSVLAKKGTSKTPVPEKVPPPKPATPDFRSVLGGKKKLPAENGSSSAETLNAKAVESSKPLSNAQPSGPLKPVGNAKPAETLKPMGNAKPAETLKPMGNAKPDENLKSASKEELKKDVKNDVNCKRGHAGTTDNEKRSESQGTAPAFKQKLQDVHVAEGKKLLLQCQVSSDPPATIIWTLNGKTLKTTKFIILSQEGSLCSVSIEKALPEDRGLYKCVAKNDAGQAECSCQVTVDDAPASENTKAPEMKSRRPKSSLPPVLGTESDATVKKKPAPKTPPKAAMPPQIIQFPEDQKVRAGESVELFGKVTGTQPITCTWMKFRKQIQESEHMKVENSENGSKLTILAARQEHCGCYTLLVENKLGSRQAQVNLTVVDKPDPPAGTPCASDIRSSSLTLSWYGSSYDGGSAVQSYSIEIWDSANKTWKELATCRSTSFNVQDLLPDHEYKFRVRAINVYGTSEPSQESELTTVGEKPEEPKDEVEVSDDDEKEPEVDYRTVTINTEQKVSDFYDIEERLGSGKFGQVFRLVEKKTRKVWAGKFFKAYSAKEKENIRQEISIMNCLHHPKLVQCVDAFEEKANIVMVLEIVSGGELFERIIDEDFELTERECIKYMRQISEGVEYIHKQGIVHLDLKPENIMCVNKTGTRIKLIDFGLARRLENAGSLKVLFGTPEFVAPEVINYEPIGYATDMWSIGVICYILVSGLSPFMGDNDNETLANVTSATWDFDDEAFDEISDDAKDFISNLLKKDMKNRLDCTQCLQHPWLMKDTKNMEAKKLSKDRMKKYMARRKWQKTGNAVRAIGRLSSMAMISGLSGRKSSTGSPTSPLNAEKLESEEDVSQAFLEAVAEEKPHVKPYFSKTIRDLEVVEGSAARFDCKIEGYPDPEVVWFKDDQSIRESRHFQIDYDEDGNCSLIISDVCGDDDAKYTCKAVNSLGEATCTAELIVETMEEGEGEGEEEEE
GSK3B (human), sequence (P49841 whole entry, looked up): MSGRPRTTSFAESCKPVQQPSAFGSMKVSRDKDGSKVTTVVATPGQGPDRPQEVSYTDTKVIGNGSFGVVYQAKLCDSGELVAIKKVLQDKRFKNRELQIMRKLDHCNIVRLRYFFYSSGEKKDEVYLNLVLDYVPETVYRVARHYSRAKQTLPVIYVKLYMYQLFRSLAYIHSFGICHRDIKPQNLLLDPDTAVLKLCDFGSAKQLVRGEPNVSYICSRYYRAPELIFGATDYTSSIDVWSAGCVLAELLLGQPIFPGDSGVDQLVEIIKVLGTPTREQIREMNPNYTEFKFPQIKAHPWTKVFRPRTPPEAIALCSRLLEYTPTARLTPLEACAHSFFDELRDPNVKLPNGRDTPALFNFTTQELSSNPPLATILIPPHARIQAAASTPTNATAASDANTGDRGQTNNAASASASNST
CSNK2A1 (human), sequence (P68400 whole entry, looked up): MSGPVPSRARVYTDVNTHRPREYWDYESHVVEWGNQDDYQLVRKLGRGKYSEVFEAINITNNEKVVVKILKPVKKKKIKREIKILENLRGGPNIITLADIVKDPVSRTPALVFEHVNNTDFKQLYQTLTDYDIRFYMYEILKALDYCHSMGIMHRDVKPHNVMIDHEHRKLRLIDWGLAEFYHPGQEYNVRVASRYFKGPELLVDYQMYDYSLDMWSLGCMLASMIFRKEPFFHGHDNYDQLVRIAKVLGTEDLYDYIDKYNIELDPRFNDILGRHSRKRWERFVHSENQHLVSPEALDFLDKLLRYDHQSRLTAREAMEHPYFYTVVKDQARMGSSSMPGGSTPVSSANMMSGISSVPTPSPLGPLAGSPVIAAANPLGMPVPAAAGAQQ

C=CC(=O)N1CCC[C@@H](n2nc(-c3ccc(Oc4ccccc4)cc3)c3c(N)ncnc32)C1
residual activity (PRKAA1 or PRKAA2 (rat); compound 0.1 µM): 88% | residual activity (PRKAA1 or PRKAA2 (rat); compound 1.0 µM): 101% | residual activity (PRKAA1 or PRKAA2 (rat); compound 10.0 µM): 78% | residual activity (EPHB3 (human); compound 0.1 µM): 99% | residual activity (EPHB3 (human); compound 1.0 µM): 96% | residual activity (EPHB3 (human); compound 10.0 µM): 51% | residual activity (MINK1 (human); compound 0.1 µM): 90% | residual activity (MINK1 (human); compound 1.0 µM): 91% | residual activity (MINK1 (human); compound 10.0 µM): 57% | residual activity (RPS6KA1 KD1 KD2 (human); compound 0.1 µM): 94% | residual activity (RPS6KA1 KD1 KD2 (human); compound 1.0 µM): 101% | residual activity (RPS6KA1 KD1 KD2 (human); compound 10.0 µM): 46% | residual activity (MYLK (human); compound 0.1 µM): 79% | residual activity (MYLK (human); compound 1.0 µM): 90% | residual activity (MYLK (human); compound 10.0 µM): 44% | residual activity (MAPK13 (human); compound 0.1 µM): 88% | residual activity (MAPK13 (human); compound 1.0 µM): 104% | residual activity (MAPK13 (human); compound 10.0 µM): 80% | residual activity (CSK (human); compound 0.1 µM): 25% | residual activity (CSK (human); compound 1.0 µM): 15% | residual activity (CSK (human); compound 10.0 µM): 3% | residual activity (PRKACA (human); compound 0.1 µM): 89% | residual activity (PRKACA (human); compound 1.0 µM): 101% | residual activity (PRKACA (human); compound 10.0 µM): 97% | residual activity (AURKB (human); compound 0.1 µM): 96% | residual activity (AURKB (human); compound 1.0 µM): 61% | residual activity (AURKB (human); compound 10.0 µM): 13% | residual activity (NTRK1 (human); compound 0.1 µM): 64% | residual activity (NTRK1 (human); compound 1.0 µM): 46% | residual activity (NTRK1 (human); compound 10.0 µM): 13% | residual activity (GSK3B (human); compound 0.1 µM): 104% | residual activity (GSK3B (human); compound 1.0 µM): 95% | residual activity (GSK3B (human); compound 10.0 µM): 75% | residual activity (DAPK1 (human); compound 0.1 µM): 95% | residual activity (DAPK1 (human); compound 1.0 µM): 95% | residual activity (DAPK1 (human); compound 10.0 µM): 84% | residual activity (IKBKB (human); compound 0.1 µM): 94% | residual activity (IKBKB (human); compound 1.0 µM): 107% | residual activity (IKBKB (human); compound 10.0 µM): 90% | residual activity (MARK4 (human); compound 0.1 µM): 111% | residual activity (MARK4 (human); compound 1.0 µM): 114% | residual activity (MARK4 (human); compound 10.0 µM): 80% | residual activity (MELK (human); compound 0.1 µM): 69% | residual activity (MELK (human); compound 10.0 µM): 56% | residual activity (CHEK2 (human); compound 0.1 µM): 92% | residual activity (CHEK2 (human); compound 1.0 µM): 77% | residual activity (CHEK2 (human); compound 10.0 µM): 35% | residual activity (MAPK1 (human); compound 0.1 µM): 94% | residual activity (MAPK1 (human); compound 1.0 µM): 99% | residual activity (MAPK1 (human); compound 10.0 µM): 90% | residual activity (EEF2K (human); compound 0.1 µM): 88% | residual activity (EEF2K (human); compound 10.0 µM): 90% | residual activity (ERBB4 (human); compound 0.1 µM): 7% | residual activity (ERBB4 (human); compound 1.0 µM): 8% | residual activity (ERBB4 (human); compound 10.0 µM): 5% | residual activity (MKNK2 (human); compound 0.1 µM): 106% | residual activity (MKNK2 (human); compound 10.0 µM): 67% | residual activity (LCK (mouse); compound 0.1 µM): 22% | residual activity (LCK (mouse); compound 10.0 µM): 9% | residual activity (MKNK1 (human); compound 0.1 µM): 91% | residual activity (MKNK1 (human); compound 1.0 µM): 115% | residual activity (MKNK1 (human); compound 10.0 µM): 84% | residual activity (MAP3K9 (human); compound 0.1 µM): 104% | residual activity (MAP3K9 (human); compound 1.0 µM): 89% | residual activity (MAP3K9 (human); compound 10.0 µM): 27% | residual activity (TTK (human); compound 0.1 µM): 95% | residual activity (TTK (human); compound 1.0 µM): 101% | residual activity (TTK (human); compound 10.0 µM): 82% | residual activity (MAP2K2 (human); compound 0.1 µM): 94% | residual activity (MAP2K2 (human); compound 1.0 µM): 94% | residual activity (MAP2K2 (human); compound 10.0 µM): 63% | residual activity (CDK2 CCNA2 (human); compound 0.1 µM): 89% | residual activity (CDK2 CCNA2 (human); compound 1.0 µM): 99% | residual activity (CDK2 CCNA2 (human); compound 10.0 µM): 84% | residual activity ([1]; compound 0.1 µM): 106% | residual activity ([1]; compound 10.0 µM): 100% | residual activity (PHKG1 (human); compound 1.0 µM): 104% | residual activity (PHKG1 (human); compound 10.0 µM): 92% | residual activity (MAPKAPK3 (human); compound 0.1 µM): 109% | residual activity (MAPKAPK3 (human); compound 1.0 µM): 109% | residual activity (INSRR (human); compound 0.1 µM): 94% | residual activity (INSRR (human); compound 1.0 µM): 101% | residual activity (INSRR (human); compound 10.0 µM): 29% | residual activity (ROCK2 (rat); compound 0.1 µM): 93% | residual activity (ROCK2 (rat); compound 1.0 µM): 111% | residual activity (ROCK2 (rat); compound 10.0 µM): 69% | residual activity (CSNK2A1 (human); compound 0.1 µM): 104% | residual activity (CSNK2A1 (human); compound 1.0 µM): 115% | residual activity (CSNK2A1 (human); compound 10.0 µM): 111% | residual activity (FGFR1 (human); compound 0.1 µM): 52% | residual activity (FGFR1 (human); compound 1.0 µM): 24% | residual activity (FGFR1 (human); compound 10.0 µM): 15% | residual activity (PRKCZ (human); compound 0.1 µM): 90% | residual activity (PRKCZ (human); compound 1.0 µM): 98% | residual activity (PRKCZ (human); compound 10.0 µM): 81%
